Measurements taken from patent US7166622B2, “Substituted phenylsulfonamide inhibitors of beta amyloid production” (Wyeth, priority 2002, dated 2007).
“And” between values parts separate entries of the source, which are not always exact repeats. Equal values may be shown once. Read-outs that look alike come from different tables or passages of the source.

Assays:
beta amyloid production = experiment: Repressor Release Assay (RRA); assay type: cell-based; details: for APPI % of Example #98: relative to Example 98
In short: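 Read-out is luciferase luminescence (RLU) after 36-48 h duplicate compound exposure of transfected CHO-K1 cells. These cells carry transiently introduced APP-lacI and pRSVO-luc DNA. Diluent control was 25 mM Hepes/1% DMSO; toxicity recorded as binary score (1 non-toxic, 0 toxic).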

CHO-K1 cells = experiment: Toxicity in RRA (loss of luciferase signal); details: toxicity = loss of signal (<0.75 fold increase)
Method: The beta amyloid inhibitory activity of the compounds of the present invention was determined using the Repressor Release Assay (RRA).
“Fold Increase” refers to the amount of luciferase activity (measured in relative light units) over diluent control. “SEM” refers to the standard error of the mean for fold increase.

[1] = Conc 10 μg/ml, luciferase activity over diluent control, read-out: APPI Fold Increase
[2] = Conc 20 μg/ml, luciferase activity over diluent control, read-out: APPI Fold Increase
[3] = Conc 20 μg/ml, luciferase activity (RLU) over diluent control, read-out: APPI Fold Increase
[4] = Conc 20 μg/ml, 1=non-toxic, 0=toxic
[5] = Conc 10 μg/ml, luciferase activity over diluent control
[6] = Conc 20 μg/ml, luciferase activity over diluent control

C/C=C(\C)C(O)(/C(C)=C/C)[C@@H](NS(=O)(=O)c1ccc(Cl)cc1)[C@@H](C)CC (stereo partly drawn) [Example 232, 4-chloro-N-{(1S,3E)-2-hydroxy-3-methyl-2-[(1E)-1-methyl-1-propenyl]-1-[(1S)-1-methylpropyl]-3-pentenyl}benzenesulfonamide]
fold induction at 10 µg/mL (beta amyloid production; [1]): 1.94
fold induction at 20 µg/mL (beta amyloid production; [2]): 4.2
(%)APPI Toxicity (CHO-K1 cells; Conc 10 μg/ml): 1 (1=non-toxic)
(%)APPI Toxicity (CHO-K1 cells; Conc 20 μg/ml): 1 (1=non-toxic)

CC[C@H](C)[C@H](NS(=O)(=O)c1ccccc1F)C(O)c1ccc(F)cc1 (stereo partly drawn) [Example 207, 2-fluoro-N-{(1S,2S)-1-[(4-fluorophenyl) (hydroxy)methyl]-2-methylbutyl}benzenesulfonamide]
fold induction at 10 µg/mL (beta amyloid production; [1]): 1.81
(%)APPI Toxicity (CHO-K1 cells; Conc 10 μg/ml): 1 (1=non-toxic)

O=S(=O)(NC1(CO)CCc2ccccc21)c1ccc(Cl)cc1 (stereo not drawn) [Example 124, 4-chloro-N-[1-(hydroxymethyl)-2,3-dihydro-1H-inden-1-yl]benzenesulfonamide]
fold induction at 20 µg/mL (beta amyloid production; [2]): 2
(%)APPI Toxicity (CHO-K1 cells; Conc 20 μg/ml): 1 (1=non-toxic)

CCCC(CO)NS(=O)(=O)c1ccc(Br)cc1 (stereo not drawn) [Example 104, 4-bromo-N-[1-(hydroxymethyl)butyl]benzenesulfonamide]
fold induction at 20 µg/mL (beta amyloid production; [2]): 1.5
(%)APPI Toxicity (CHO-K1 cells; Conc 20 μg/ml): 1 (1=non-toxic)

CCCCCC(O)(CCCCC)[C@@H](NS(=O)(=O)c1ccccc1F)[C@@H](C)CC [Example 262, 2-fluoro-N-{(1S)-2-hydroxy-1-[(1S)-1-methylpropyl]-2-pentylheptyl}benzenesulfonamide]
fold induction at 10 µg/mL (beta amyloid production; [1]): 2.2
(%)APPI Toxicity (CHO-K1 cells; Conc 10 μg/ml): 1 (1=non-toxic)

CC[C@H](C)[C@H](NS(=O)(=O)c1ccccc1F)C(O)(c1ccc(F)cc1)c1ccc(F)cc1 [Example 266, N-{(1S,2S)-1-[bis(4-fluorophenyl)(hydroxy)methyl]-2-methylbutyl}-2-fluorobenzenesulfonamide]
fold induction at 10 µg/mL (beta amyloid production; [1]): 1.57
(%)APPI Toxicity (CHO-K1 cells; Conc 10 μg/ml): 1 (1=non-toxic)

CCCCCC[C@@H](CCCCC)[C@@H](CO)NS(=O)(=O)c1ccc(Cl)cc1 [Example 62, 4-chloro-N-[(1S,2R)-1-(hydroxymethyl)-2-pentyloctyl]benzenesulfonamide]
fold induction at 20 µg/mL (beta amyloid production; [3]): 1.8
(%)APPI Toxicity (CHO-K1 cells; [4]): 1 (1=non-toxic)

CC[C@H](C)[C@H](NS(=O)(=O)c1ccc(Cl)cc1)C(O)CC(C)C (stereo partly drawn) [Example 173, 4-chloro-N-{(1S)-2-hydroxy-4-methyl-1-[(1S)-1-methylpropyl]pentyl}benzenesulfonamide]
fold induction at 10 µg/mL (beta amyloid production; [1]): 2.56
(%)APPI Toxicity (CHO-K1 cells; Conc 10 μg/ml): 1 (1=non-toxic)

CCCCCC[C@@H](CC)[C@@H](CO)NS(=O)(=O)c1ccc(Cl)cc1 [Example 89, 4-chloro-N-[(1S,2R)-2-ethyl-1-(hydroxymethyl)octyl] benzenesulfonamide]
APPI Fold Increase (beta amyloid production; Conc 20 μg/ml, luciferase activity (RLU) over diluent control): 22.4
APPI % of Example #98 (beta amyloid production; Conc 20 μg/ml): 97.9%
(%)APPI Toxicity (CHO-K1 cells; [4]): 1 (1=non-toxic)

CCCCCC[C@H](CC)[C@@H](CO)NS(=O)(=O)c1ccc(Cl)cc1 [Example 88, 4-Chloro-N-[(1 S,2S)-2-ethyl-1-(hydroxymethyl)octyl]benzenesulfonamide]
fold induction at 20 µg/mL (beta amyloid production; [3]): 6.4
(%)APPI Toxicity (CHO-K1 cells; [4]): 1 (1=non-toxic)

CC[C@H](C)[C@H](NS(=O)(=O)c1ccc(F)cc1)C(O)c1cccc2ccccc12 (stereo partly drawn) [Example 144, 4-fluoro-N-{(1S,2S)-1-[hydroxy(1-naphthyl)methyl]-2-methylbutyl}benzenesulfonamide]
fold induction at 10 µg/mL (beta amyloid production; [1]): 1.69
(%)APPI Toxicity (CHO-K1 cells; Conc 10 μg/ml): 1 (1=non-toxic)

O=S(=O)(N[C@H](CO)Cc1ccccc1)c1ccccc1F [Example 118, N-[(1S)-1-benzyl-2-hydroxyethyl]-2-fluorobenzenesulfonamide]
fold induction at 20 µg/mL (beta amyloid production; [2]): 1.6
(%)APPI Toxicity (CHO-K1 cells; Conc 20 μg/ml): 1 (1=non-toxic)

CC[C@H](C)[C@H](NS(=O)(=O)c1cccc(Cl)c1)C(O)C(C)C (stereo partly drawn) [Example 190, 3-chloro-N-{(1S)-2-hydroxy-3-methyl-1-[(1S)-1-methylpropyl]butyl}benzenesulfonamide]
fold induction at 10 µg/mL (beta amyloid production; [1]): 1.76
(%)APPI Toxicity (CHO-K1 cells; Conc 10 μg/ml): 1 (1=non-toxic)

CSc1ccc([C@H](O)[C@H](CO)NS(=O)(=O)c2ccccc2F)cc1 [Example 116, 2-fluoro-N-{(1S,2S)-2-hydroxy-1-(hydroxymethyl)-2-[4-(methylthio)phenyl]ethyl}benzenesulfonamide]
fold induction at 20 µg/mL (beta amyloid production; [2]): 1.6
(%)APPI Toxicity (CHO-K1 cells; Conc 20 μg/ml): 1 (1=non-toxic)

CC(C)C[C@@H](CO)NS(=O)(=O)c1ccccc1F [Example 109, 2-fluoro-N-[(1S)-1-(hydroxymethyl)-3-methylbutyl]benzenesulfonamide]
fold induction at 20 µg/mL (beta amyloid production; [2]): 1.9
(%)APPI Toxicity (CHO-K1 cells; Conc 20 μg/ml): 1 (1=non-toxic)

CC[C@H](C)[C@H](NS(=O)(=O)c1ccccc1F)C(O)c1ccc(OC)cc1 (stereo partly drawn) [Example 209, 2-fluoro-N-{(1S,2S)-1-[hydroxy(4-methoxyphenyl)methyl]-2-methylbutyl} benzenesulfonamide]
APPI Fold Increase (beta amyloid production; [5]): 1.81 fold
APPI % of Example #98 (beta amyloid production; Conc 10 μg/ml): 88.04%
(%)APPI Toxicity (CHO-K1 cells; Conc 10 μg/ml): 1 (1=non-toxic)

C/C=C(\C)C(O)(/C(C)=C/C)[C@@H](NS(=O)(=O)c1ccc(Br)cc1)[C@@H](C)CC (stereo partly drawn) [Example 220, 4-bromo-N-{(1S,3E)-2-hydroxy-3-methyl-2-[(1E)-1-methyl-1-propenyl]-1-[(1S)-1-methylpropyl]-3-pentenyl}benzenesulfonamide]
fold induction at 10 µg/mL (beta amyloid production; [1]): 3.29
(%)APPI Toxicity (CHO-K1 cells; Conc 10 μg/ml): 1 (1=non-toxic)

CC[C@H](C)[C@H](NS(=O)(=O)c1ccc(Br)cc1)C(O)(CC)CC [Example 217, 4-bromo-N-{(1S)-2-ethyl-2-hydroxy-1-[(1S)-1-methylpropyl]butyl}benzenesulfonamide]
fold induction at 10 µg/mL (beta amyloid production; [1]): 1.68
(%)APPI Toxicity (CHO-K1 cells; Conc 10 μg/ml): 1 (1=non-toxic)

CCC(O)[C@@H](NS(=O)(=O)c1ccc(F)cc1)[C@@H](C)CC (stereo partly drawn) [Example 135, 4-fluoro-N-{(1S)-2-hydroxy-1-[(1S)-1-methylpropyl]butyl}benzenesulfonamide]
fold induction at 10 µg/mL (beta amyloid production; [1]): 1.91
(%)APPI Toxicity (CHO-K1 cells; Conc 10 μg/ml): 1 (1=non-toxic)

CCCCCCC(O)(CCCCCC)[C@@H](NS(=O)(=O)c1cccc(Cl)c1)[C@@H](C)CC [Example 249, 3-chloro-N-{(1S)-2-hexyl-2-hydroxy-1-[(1S)-1-methylpropyl]octyl}benzenesulfonamide]
fold induction at 10 µg/mL (beta amyloid production; [1]): 1.9
(%)APPI Toxicity (CHO-K1 cells; Conc 10 μg/ml): 1 (1=non-toxic)

4-bromo-N-((1S,2 S)-1-{hydroxy-[4-(methylsulfanyl)phenyl]methyl}-2-methylbutyl) benzenesulfonamide [Example 163]
APPI Fold Increase (beta amyloid production; [5]): 1.64 fold
APPI % of Example #98 (beta amyloid production; Conc 10 μg/ml): 69.41%
(%)APPI Toxicity (CHO-K1 cells; Conc 10 μg/ml): 1 (1=non-toxic)

CC[C@H](C)[C@H](NS(=O)(=O)c1ccc(F)cc1)C(O)c1ccccc1C (stereo partly drawn) [Example 131, 4-fluoro-N{(1S,2S)-1-[hydroxy-(2-methylphenyl)methyl]-2-methylbutyl}benzenesulfonamide]
APPI Fold Increase (beta amyloid production; [5]): 1.65 fold
APPI % of Example #98 (beta amyloid production; Conc 10 μg/ml): 64.57%
(%)APPI Toxicity (CHO-K1 cells; Conc 10 μg/ml): 1 (1=non-toxic)

CC[C@H](C)[C@H](NS(=O)(=O)c1ccc(Cl)cc1)C(O)(c1ccc(OC)cc1)c1ccc(OC)cc1 [Example 231, 4-chloro-N-((1S,2 S)-1-{hydroxy [bis(4-methoxyphenyl)]methyl}-2-methylbutyl)benzenesulfonamide]
fold induction at 10 µg/mL (beta amyloid production; [1]): 2.49
(%)APPI Toxicity (CHO-K1 cells; Conc 10 μg/ml): 1 (1=non-toxic)

CC[C@H](CC(C)C)[C@@H](CO)NS(=O)(=O)c1ccc(Cl)cc1 [Example 53, 4-chloro-N-[(1S,2R)-2-ethyl-1-(hydroxymethyl)-4-methylpentyl]benzenesulfonamide]
fold induction at 20 µg/mL (beta amyloid production; [3]): 5.2
(%)APPI Toxicity (CHO-K1 cells; [4]): 1 (1=non-toxic)

CCCCCC[C@@H](c1ccccc1)[C@@H](CO)NS(=O)(=O)c1ccc(Cl)cc1 [Example 65, 4-chloro-N-[(1S,2S)-1-(hydroxymethyl)-2-phenyloctyl]benzenesulfonamide]
fold induction at 20 µg/mL (beta amyloid production; [3]): 1.9
(%)APPI Toxicity (CHO-K1 cells; [4]): 1 (1=non-toxic)

CSCC[C@H](CO)NS(=O)(=O)c1cccc(Cl)c1 [Example 107, 3-chloro-N-[(1R)-1-(hydroxymethyl)-3-(methylthio)propyl]benzenesulfonamide]
fold induction at 1 µg/mL (beta amyloid production; Conc 1 μg/ml, luciferase activity over diluent control, read-out: APPI Fold Increase): 2.35
(%)APPI Toxicity (CHO-K1 cells; Conc 1 μg/ml): 1 (1=non-toxic)

3-chloro-N-{(1S,3E)-2-hydroxy-3-methyl-2-[(1 F)-1-methyl-1-propenyl]-1-[(1S)-1-methylpropyl]-3-pentenyl}benzenesulfonamide [Example 259]
APPI Fold Increase (beta amyloid production; Conc 0.3 μg/ml, luciferase activity over diluent control): 1.7 fold
APPI % of Example #98 (beta amyloid production; Conc 0.3 μg/ml): 31.1%
APPI Fold Increase (beta amyloid production; Conc 1 μg/ml, luciferase activity over diluent control): 1.7 fold
APPI % of Example #98 (beta amyloid production; Conc 1 μg/ml): 31.1%
APPI Fold Increase (beta amyloid production; Conc 3 μg/ml, luciferase activity over diluent control): 1.7 fold
APPI % of Example #98 (beta amyloid production; Conc 3 μg/ml): 31.5%
APPI Fold Increase (beta amyloid production; [5]): 2.19 fold and 1.6 fold and 1.7 fold
APPI Fold Increase (beta amyloid production; [6]): 4.4 fold
APPI % of Example #98 (beta amyloid production; Conc 20 μg/ml): 119.7%
(%)APPI Toxicity (CHO-K1 cells; Conc 0.3 μg/ml): 1 (1=non-toxic)
(%)APPI Toxicity (CHO-K1 cells; Conc 1 μg/ml): 1 (1=non-toxic)
(%)APPI Toxicity (CHO-K1 cells; Conc 3 μg/ml): 1 (1=non-toxic)
(%)APPI Toxicity (CHO-K1 cells; Conc 10 μg/ml): 1 (1=non-toxic)
(%)APPI Toxicity (CHO-K1 cells; Conc 20 μg/ml): 1 (1=non-toxic)

C[C@@H](NS(=O)(=O)c1ccc(Br)cc1)[C@@H](O)c1ccccc1 [Example 100, 4-bromo-N-[(1R,2S)-2-hydroxy-1-methyl-2-phenylethyl] benzenesulfonamide]
APPI Fold Increase (beta amyloid production; [6]): 1.6 fold
APPI % of Example #98 (beta amyloid production; Conc 20 μg/ml): 41%
(%)APPI Toxicity (CHO-K1 cells; Conc 20 μg/ml): 1 (1=non-toxic)
